Source: patent US9718840B2, “Condensed 5-oxazolidinone derivative” (SUMITOMO DAINIPPON PHARMA CO., LTD., priority 2014, dated 2017)

How the values were obtained:
[1] = molecular target: T1, Human FXa (Homo sapiens, UniProt P00742); assay: Enzyme selectivity evaluation test: FXa; assay type: biochemical
T1 construct: 4) Factor Xa (FXa); purchased Enzyme Research Laboratories
Method: S-2222 (Bz-Ile-Glu(γ-OR)-Gly-Arg-pNAHC1 (SEQ ID NO: 1), R═H (50%) and R═CH3 (50%)) (manufactured by Chromogenix) was added as the substrate at a final concentration of 150 μmol/L. After progression of the reaction, the absorbance was measured at OD 405 nm.

[2] = system: Rabbit venous thrombus models; assay: In vivo antithrombotic effect evaluation test using rabbit (arteriovenous shunt); conditions: prompt i.v. + continuous i.v.
Method: Rabbit venous thrombus models were prepared by a modification of the report of Wong et al. (Wong P C. et al., J. Pharmacol. Exp. Ther. 292: 351-357 (2000)). Male rabbits (JW, 2 to 4 kg) were anesthetized by the inhalation of isoflurane (ISOFLU®, manufactured by DS Pharma Animal Health Co., Ltd.) (introduced anesthesia: 4%, continuous anesthesia: 1.5 to 2.5%). A tracheostomy tube was inserted to each rabbit, which was then ventilated using a respirator. For the intravenous administration of a test drug and blood collection, catheters were inserted to the right femoral vein and the right femoral artery, respectively. An arteriovenous shunt filled with saline was inserted to the carotid artery and the jugular vein. The arteriovenous shunt was prepared by connecting Atom extension tubes (4Fr) having lengths of 15 cm and 13 cm to the artery side and the vein side, respectively, of a polyethylene tube (length: 60 cm, outside diameter: 11.1 mm, inside diameter: 7.9 mm). Also, 4-0 silk thread having a length of 5 cm was indwelled in the arteriovenous shunt. Blood was sent for 30 minutes from the carotid artery to the jugular vein via the arteriovenous shunt. The shunt was removed, and the weight of the silk thread covered with thrombus was measured. The weight of the silk thread measured before the experiment was subtracted from the measured weight, and the obtained value was used as a wet thrombus weight. One hour before the open of the arteriovenous shunt, the test drug or a vehicle was promptly intravenously administered (0.67 mL/kg) and then continuously intravenously administered (1 mL/kg/hr). The continuous injection was continued throughout the experiment. Further, an existing anticoagulant dabigatran (antithrombin drug) and rivaroxaban (FXa inhibitor) were tested as control drugs.
In order to measure aPTT of blood samples as an index for the intrinsic coagulation pathway, blood was collected before administration and immediately before cessation of blood flow, and plasma was prepared using 3.2% sodium citrate. After incubation at 37° C. for 6 minutes, an STA reagent Cephascreen (for aPTT assay; manufactured by Roche Diagnostics K.K.) was added in an amount equal thereto, and the mixture was further incubated for 4 minutes. STA calcium chloride (manufactured by Roche Diagnostics K.K.) was added in an amount equal thereto, and the time required for coagulation was measured.
In order to measure prothrombin time (PT) of blood samples as an index for the extrinsic coagulation pathway, blood was collected before administration and immediately before cessation of blood flow, and plasma was prepared using 3.2% sodium citrate. After incubation at 37° C. for 10 minutes, Neoplastin Plus (for PT assay; manufactured by Roche Diagnostics K.K.) was added in a double amount, and the time required for coagulation was measured.

[3] = system: Rabbit nail bleeding models; assay: Bleeding time evaluation test using rabbit nail bleeding model; assay type: in vivo; conditions: for Bleeding time: Experiment 2 (maximum 60 minutes), rabbit; for Bleeding time (fold-increase): Experiment 2, ratio to vehicle group average
Method: Rabbit nail bleeding models were prepared by a modification of the report of Wong et al. (Wong P C. et al., J. Thromb. Haemost. 7: 1313-1320 (2009)). Male rabbits (JW, 1.5 to 3.5 kg) were anesthetized by the inhalation of isoflurane (ISOFLU®, manufactured by DS Pharma Animal Health Co., Ltd.) (introduced anesthesia: 4%, continuous anesthesia: 2 to 3%).
For the intravenous administration of a test drug or a vehicle, an indwelling needle was inserted to the auricular vein, and the test drug or the vehicle was promptly intravenously administered (0.67 mL/kg) and then continuously intravenously administered (1 mL/kg/hr). One hour after the start of administration, three posterior toenails were cut and dipped in saline heated to approximately 37° C., and the bleeding time was measured. The bleeding time was defined as a time from the cutting to the arrest of bleeding, and an average value from the three nails was used. The measurement time was 30 minutes at the maximum for experiment 1 and 60 minutes at the maximum for experiment 2. In each experiment, if bleeding for 30 minutes or 60 minutes or longer was confirmed, the bleeding time was regarded as 30 minutes or 60 minutes.

[4] = Dog PK test (Test Example 7); assay type: in vivo; conditions: plasma, 1 mg/kg, male beagle, intravenous, 1 mg/2 mL/kg, read-out: AUC from 0 hours to 24 hours (compound of Reference Example 2-6 in plasma)
Method: The compound of Reference Example 2-6 was dissolved in a mixed solution of saline/0.1 N HCl=9/1, and this solution was intravenously administered at a dose of 1 mg/2 mL/kg to a male beagle. Blood collection was carried out 0.25, 0.5, 1, 2, 4, 6, and 24 hours after administration. 2 mL of blood was collected using a syringe packed with 20 μL of Novo-Heparin Injection, transferred to a centrifugal tube cooled in ice, and centrifuged at 3000 rpm at 4° C. for 10 minutes to prepare plasma. 200 μL of the prepared plasma was added to a tube containing 600 μL of acetonitrile and mixed for approximately 10 seconds using a vortex mixer. Then, the concentration of the compound of Reference Example 2-6 was measured.
The compound of Example 1 was dissolved in a 0.5% aqueous methylcellulose solution, and this solution was orally administered at a dose of 5 mg/5 mL/kg to a male beagle fasted for 16 hours. Blood collection was carried out 0.5, 1, 2, 4, 6, and 24 hours after administration. 2 mL of blood was collected using a syringe packed with 20 μL of Novo-Heparin Injection, transferred to a centrifugal tube cooled in ice, and centrifuged at 3000 rpm at 4° C. for 10 minutes to prepare plasma. […] Then, the concentration of the compound of Reference Example 2-6 was measured.

[5] = molecular target: Human FXIa (Homo sapiens, UniProt P03951); assay: In vitro activated factor XI (FXIa) inhibition test; assay type: biochemical; set-up: purchased Enzyme Research Laboratories; conditions: substrate S-2366, 37° C., 10 minutes; read-out: FXIa Inhibition activity IC50
Chain of Human FXIa (P03951 388-625 limits assumed): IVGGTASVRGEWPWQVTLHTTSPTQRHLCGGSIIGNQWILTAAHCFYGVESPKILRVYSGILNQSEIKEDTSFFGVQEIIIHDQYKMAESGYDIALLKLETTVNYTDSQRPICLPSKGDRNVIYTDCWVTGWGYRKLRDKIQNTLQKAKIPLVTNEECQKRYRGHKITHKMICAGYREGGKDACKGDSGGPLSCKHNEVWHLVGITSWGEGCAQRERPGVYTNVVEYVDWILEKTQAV
Chain of Human FXIa (P03951 19-387 partner limits assumed): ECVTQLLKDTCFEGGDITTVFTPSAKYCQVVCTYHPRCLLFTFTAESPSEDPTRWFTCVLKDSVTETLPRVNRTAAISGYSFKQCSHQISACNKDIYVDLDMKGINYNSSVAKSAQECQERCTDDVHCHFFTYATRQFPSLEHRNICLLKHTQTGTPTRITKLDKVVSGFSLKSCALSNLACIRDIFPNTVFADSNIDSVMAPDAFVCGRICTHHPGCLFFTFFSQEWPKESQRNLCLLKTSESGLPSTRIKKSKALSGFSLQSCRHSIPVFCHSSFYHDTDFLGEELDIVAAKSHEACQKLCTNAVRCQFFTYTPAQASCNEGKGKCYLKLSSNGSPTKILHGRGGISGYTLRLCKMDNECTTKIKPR

[6] = dose 0.15 + 0.225 mg/kg + mg/kg/h
[7] = dose 0.5 + 0.75 mg/kg + mg/kg/h
[8] = dose 1.5 + 2.25 mg/kg + mg/kg/h
[9] = dose 0.5 + 0.75 mg/kg + mg/kg/h i.v.
[10] = dose 1.5 + 2.25 mg/kg + mg/kg/h i.v.
[11] = dose 5.0 + 7.5 mg/kg + mg/kg/h i.v.
[12] = dose 15 + 22..5 mg/kg + mg/kg/h i.v.

T1 sequence (P00742 235-488 limits assumed): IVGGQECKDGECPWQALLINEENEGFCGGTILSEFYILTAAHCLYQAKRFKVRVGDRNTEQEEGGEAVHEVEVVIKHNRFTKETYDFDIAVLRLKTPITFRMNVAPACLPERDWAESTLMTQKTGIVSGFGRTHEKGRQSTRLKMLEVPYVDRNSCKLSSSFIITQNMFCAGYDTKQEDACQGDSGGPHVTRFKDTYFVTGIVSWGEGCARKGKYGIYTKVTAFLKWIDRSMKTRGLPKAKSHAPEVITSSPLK
T1 sequence (P00742 41-179 partner limits assumed): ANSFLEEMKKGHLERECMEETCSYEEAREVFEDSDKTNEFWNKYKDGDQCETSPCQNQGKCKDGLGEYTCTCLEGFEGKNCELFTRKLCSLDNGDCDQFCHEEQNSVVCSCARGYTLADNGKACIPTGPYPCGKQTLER

## Cl.N[C@H](CF)[C@H]1CC[C@H](C(=O)N2CC[C@@H](C3CCCCC3)[C@H]2C(=O)Nc2ccc3[nH]c(C(=O)O)cc3c2)CC1 [Reference Example 2-6, 5-{[(3S)-1-({trans-4-[(1S)-1-Amino-2-fluoroethyl]cyclohexyl}carbonyl)-3-cyclohexyl-L-prolyl]amino}-1H-indole-2-carboxylic acid hydrochloride]
[1]
  IC50: > 10000 nM
[2]; [6]
  PT (ratio): 1.01 ± 0.02 ratio
  Thrombus weight: 81 ± 12 mg
  aPTT (ratio): 1.24 ± 0.08 ratio
[2]; [7]
  PT (ratio): 1.00 ± 0.02 ratio
  Thrombus weight: 66 ± 22 mg
  aPTT (ratio): 1.59 ± 0.15 ratio
[2]; [8]
  PT (ratio): 1.01 ± 0.00 ratio
  Thrombus weight: 36 ± 6 mg
  aPTT (ratio): 1.84 ± 0.10 ratio
[2]; dose 5.0 + 7.5 mg/kg + mg/kg/h
  PT (ratio): 1.02 ± 0.02 ratio
  Thrombus weight: 16 ± 6 mg
  aPTT (ratio): 2.35 ± 0.09 ratio
[3]; [9]
  Bleeding time: 843 ± 270 s
  Bleeding time (fold-increase): 1.5 ± 0.5 fold-increase
[3]; [10]
  Bleeding time: 772 ± 234 s
  Bleeding time (fold-increase): 1.3 ± 0.4 fold-increase
[3]; [11]
  Bleeding time: 768 ± 236 s
  Bleeding time (fold-increase): 1.3 ± 0.4 fold-increase
[3]; [12]
  Bleeding time: 656 ± 198 s
  Bleeding time (fold-increase): 1.1 ± 0.3 fold-increase
[4]
  AUC: 5220 ng·h/mL
[5]
  IC50: 6 nM
